Data: patent publication US6426355B1, “Heterocyclic carboxamide-containing thiourea inhibitors of herpes viruses containing phenylenediamine group” (American Home Products, priority 1998, dated 2002)
Converted amounts (≈) assume the structure as drawn.

Key:
[1] = test system: HCMV recombinant mutant virus (RV145); experiment: HCMV microtiter plate assay (beta-glucuronidase reporter); type: cell-based, Human Cytomegalovirus; conditions: for IC50 (ug/ml) HCMV: HCMV in human foreskin fibroblasts
Outline: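 Human foreskin fibroblasts were infected with RV145 in the presence of inhibitor. β-glucuronidase under a viral promoter served as the replication marker. At 96 h post-infection, lysates in pH 7.0 phosphate with Triton X-100/sarkosyl were assayed colorimetrically or fluorometrically, and IC50 was estimated from varying inhibitor amounts.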

HSV-1 = experiment: HSV Antiviral (ELISA) assay; type: cell-based; conditions: for IC50 (ug/ml) HSV: HSV-1 in Vero cells
Protocol: Vero cells (ATCC #CCL-81) are plated on 96-well tissue culture plates at 3.5×10^4 cells per 100 μl tissue culture DMEM (Dulbecco's modified Eagle media) supplemented with 2% fetal bovine serum (FBS) in each well. After overnight incubation @ 37° C. (in 5% CO2) and 30 minutes prior to infection with HSV-1 (multiplicity of infection equal to 0.006), cells are either untreated, or treated with test compound (multiple concentrations) or reference standard drug control. After approximately 24 hours post-infection incubation @ 37° C. (in 5% CO2), cells are fixed for ELISA assay. The primary antibody is murine anti-HSV glycoprotein D monoclonal primary antibody and the secondary antibody is goat anti-mouse IgG linked to β-galactosidase. Thus the extent of viral replication is determined by assessing β-galactosidase activity by quantifying the generation of the 4-methyl umbelliferone fluorescent cleavage product after addition of the methyl umbelliferyl-β-D-galactoside (Sigma #M1633) substrate on a microfluorimeter (365 nm for excitation and 450 nm for emission). Antiviral activity (IC50) of the test compound is determined by comparing the flourescence obtained in absence of compound to that obtained in the presence of compound.

Structure (SMILES)	IC50 (ug/ml) HCMV [1] [µg/mL]	IC50 (ug/ml) HSV (HSV-1) [µg/mL]	IC50 ([1]; Human betaherpesvirus 5, Fibroblast, read-out: IC50 (ug/ml) HCMV) [µg/mL]	IC50 (HSV-1; Human alphaherpesvirus 1, HSV-1 in Vero cells, read-out: IC50 (ug/ml) HSV) [µg/mL]
CN(C)CCCc1cc(NC(=S)Nc2ccc(NC(=O)c3csnn3)cc2)cc(C(F)(F)F)c1 [Example 654]	0.07 (≈ 0.138 µM)	>10	–	–
O=C(Nc1ccc(NC(=S)NCCc2ccc([N+](=O)[O-])cc2)cc1)c1csnn1 [Example 722]	0.015 (≈ 0.035 µM)	>10	–	–
CCc1ccc(CCNC(=S)Nc2ccc(NC(=O)c3csnn3)cc2)cc1 [Example 713]	0.009 (≈ 0.0219 µM)	>10	–	–
O=C(Nc1ccc(NC(=S)NCc2ccc(F)c(F)c2)cc1)c1csnn1 [Example 676]	0.013 (≈ 0.0321 µM)	>10	–	–
O=C(Nc1ccc(NC(=S)NCCOc2ccc(I)cc2)cc1)c1ccco1 [Example 698]	0.04 (≈ 0.0788 µM)	6 (≈ 11.8 µM)	–	–
COc1ccc(CCNC(=S)Nc2ccc(NC(=O)c3csnn3)cc2)cc1Br [Example 681]	0.02 (≈ 0.0406 µM)	>10	–	–
O=C(Nc1ccc(NC(=S)NCCc2ccccc2Cl)cc1)c1csnn1 [Example 683]	0.02 (≈ 0.0479 µM)	10 (≈ 23.9 µM)	–	–
O=C(Nc1ccc(NC(=S)NCc2cc(C(F)(F)F)ccc2F)cc1)c1csnn1 [Example 671]	0.005 (≈ 0.011 µM)	>10	–	–
O=C(Nc1ccc(NC(=S)Nc2cc(Cl)cc(Cl)c2)cc1)c1cscn1 [Example 700]	0.004 (≈ 0.00945 µM)	>10	–	–
O=C(Nc1ccc(NC(=S)NCCOc2cccc(Br)c2)cc1)c1csnn1 [Example 734]	0.009 (≈ 0.0188 µM)	>10	–	–
O=C(Nc1ccc(NC(=S)NCCc2ccc(Cl)c(Cl)c2)cc1)c1ccco1 [Example 718]	0.02 (≈ 0.046 µM)	6 (≈ 13.8 µM)	–	–
O=C(Nc1ccc(NC(=S)NCCOc2cc(Cl)cc(Cl)c2)cc1)c1ccco1 [Example 665]	0.02 (≈ 0.0444 µM)	5 (≈ 11.1 µM)	–	–
O=C(Nc1ccc(NC(=S)NCc2cccc(C(F)(F)F)c2)cc1)c1csnn1 [Example 731]	0.007 (≈ 0.016 µM)	>10	–	–
COc1ccccc1CNC(=S)Nc1ccc(NC(=O)c2csnn2)cc1 [Example 650]	0.05 (≈ 0.125 µM)	>10	–	–
O=C(Nc1ccc(NC(=S)NCc2ccc(Cl)c(Cl)c2)cc1)c1cscn1 [Example 745]	0.0025 (≈ 0.00572 µM)	9 (≈ 20.6 µM)	–	–
O=C(Nc1ccc(NC(=S)NCCOc2ccc(I)cc2)cc1)c1csnn1 [Example 694]	0.04 (≈ 0.0761 µM)	10 (≈ 19 µM)	–	–
O=C(Nc1ccc(NC(=S)NCCc2c(Cl)cccc2Cl)cc1)c1csnn1 [Example 709]	0.05 (≈ 0.111 µM)	>10	–	–
COc1ccccc1CCNC(=S)Nc1ccc(NC(=O)c2csnn2)cc1 [Example 651]	0.03 (≈ 0.0725 µM)	>10	–	–
O=C(Nc1ccc(NC(=S)NCCc2cccc(Br)c2)cc1)c1csnn1 [Example 770]	0.006 (≈ 0.013 µM)	>10	–	–
O=C(Nc1ccc(NC(=S)NCCc2ccc(F)c(C(F)(F)F)c2)cc1)c1csnn1 [Example 764]	0.004 (≈ 0.00852 µM)	>10	–	–
O=C(Nc1ccc(NC(=S)Nc2ccc(Cl)c(C(F)(F)F)c2)cc1)c1cscn1 [Example 705]	0.006 (≈ 0.0131 µM)	>10	–	–
NC(=O)c1cccc(NC(=S)Nc2ccc(NC(=O)c3ccccc3F)cc2)c1 [Example 1002, N-[4-[[[[3-(Aminocarbonyl)phenyl]-amino]thioxomethyl]amino]phenyl]-2-fluoro-benzamide]	–	–	0.07 (≈ 0.171 µM)	> 10
O=C(Nc1ccc(NC(=S)NCCc2ccc(Cl)cc2)cc1)c1csnn1 [Example 685]	0.006 (≈ 0.0144 µM)	10 (≈ 23.9 µM)	–	–
